Experimental data: PubChem BioAssay (NCI)
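Five compound concentrations were applied to cells in 96-well plates for 48 hours; endpoints were derived by simple linear interpolation of the resulting dose-response curve. TGI marks complete inhibition of growth.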

Experiments:
Test in all cases: NCI anticancer screen, dose series, 48 h
CCRF-CEM leukemia = tested on: CCRF-CEM leukemia
BT-549 breast = tested on: BT-549 breast
UACC-62 melanoma = tested on: UACC-62 melanoma
HCT-15 colon = tested on: HCT-15 colon
LOX IMVI melanoma = tested on: LOX IMVI melanoma
U251 CNS = tested on: U251 CNS
RPMI-8226 leukemia = tested on: RPMI-8226 leukemia
PC-3 prostate = tested on: PC-3 prostate
SNB-19 CNS = tested on: SNB-19 CNS
MCF7 breast = tested on: MCF7 breast

Row | Compound | TGI (CCRF-CEM leukemia) [µM] | TGI (BT-549 breast) [µM] | TGI (UACC-62 melanoma) [µM] | TGI (HCT-15 colon) [µM] | TGI (LOX IMVI melanoma) [µM] | TGI (U251 CNS) [µM] | TGI (RPMI-8226 leukemia) [µM] | TGI (PC-3 prostate) [µM] | TGI (SNB-19 CNS) [µM] | TGI (MCF7 breast) [µM]
1 | CN1CCN(C2CC(=O)c3c(Cl)sc(Cl)c32)CC1 (stereo not given) | 14.6 | > 52.2 | 34.1 | > 31.6 | 3.83 | 36 | 15.5 | > 100 | > 100 | > 100
2 | CC(C)(C)C1=CC(O)(c2c3ccccc3c(C3(O)C=C(C(C)(C)C)C(=O)C(C(C)(C)C)=C3)c3ccccc23)C=C(C(C)(C)C)C1=O | > 100 | > 100 | > 100 | > 100 | > 100 | > 100 | > 100 | > 100 | > 100 | > 100
3 | CCOC(=O)/C=C/C(Br)=C(Br)/C=C/C(=O)OCC | 2.84 | 12.4 | 30.9 | 10.7 | 7.44 | 27.9 | 15.6 | 28 | 33.6 | 26.2
4 | CC(=O)OCC12C(OC(C)=O)C[C@@H](C)C3(CC(c4ccoc4)OC3=O)C1CCC(OC(C)=O)C21CO1 (stereo not given in full) | > 100 | > 100 | > 100 | > 100 | > 100 | > 100 | > 100 | > 100 | > 100 | > 100
5 | COC1OC2COC(c3ccccc3)OC2C(OC(=S)c2ccccc2)C1O (stereo not given) | > 100 | > 100 | > 100 | > 100 | 20.5 | 26.2 | > 100 | 74.9 | > 100 | > 100
6 | Nc1nn2cc(-c3ccccc3)[n+](CC(=O)c3ccccc3)c2s1 | 54.6 | 40.5 | > 100 | > 100 | 35.4 | 29.6 | 37.3 | > 100 | 52.9 | 24.6
7 | COc1ccc2c(-c3csc(-c4c[nH]c5ccccc45)n3)c[nH]c2c1 | > 63.3 | > 100 | > 94.8 | > 100 | > 31.9 | 29.8 | > 24.5 | 39.9 | > 100 | > 100
8 | CCOC(=O)N1c2c(c3ccccc3n2C(=O)OCC)C(=O)C(OC)N1C(=O)OCC (stereo not given) | > 100 | > 100 | > 100 | 79 | 38.8 | 76.5 | > 100 | 80.5 | > 100 | > 100
9 | C[S+](C)C1(c2ccccc2)C(=O)c2ccccc2C1=O | > 85.8 | 35.6 | > 62.7 | > 100 | > 72.7 | > 66.3 | > 100 | > 100 | > 100 | > 100
10 | O=C(OCC(OC(=O)c1ccccc1)C1CC(C(O)C2CCCCC2)C(=O)O1)c1ccccc1 (stereo not given) | 52.8 | > 100 | > 100 | > 100 | > 100 | > 100 | 78.9 | > 100 | > 100 | 96.7
